Measured values from the NIST ThermoML archive (doi:10.1016/j.jct.2013.04.021).

Experiment: xn = mol fraction of the nth substance listed
Conditions: 101 kPa, Liquid; for mass density: Vibrating tube method; for speed of sound: fixed-path interferometer; for viscosity: Capillary tube (Ostwald / Ubbelohde) method

CCCCOCCO [2-butoxyethan-1-ol] + CCCCCCO
Conditions	mass density [kg/m3]	speed of sound [m/s]	viscosity [mPa·s]
293.15 K, x1 = 0.0535	823.637	1320	–
293.15 K, x1 = 0.1046	827.82	1319.4	–
293.15 K, x1 = 0.1546	831.917	1319.1	–
293.15 K, x1 = 0.2054	836.077	1318.8	–
293.15 K, x1 = 0.253	839.982	1318.5	–
293.15 K, x1 = 0.2999	843.819	1318.3	–
293.15 K, x1 = 0.4044	852.353	1318.3	–
293.15 K, x1 = 0.5039	860.457	1318.5	–
293.15 K, x1 = 0.5932	867.724	1318.9	–
293.15 K, x1 = 0.7003	876.414	1319.6	–
293.15 K, x1 = 0.8019	884.63	1320.7	–
293.15 K, x1 = 0.8545	888.867	1321.4	–
293.15 K, x1 = 0.8987	892.418	1322	–
293.15 K, x1 = 0.9522	896.698	1322.8	–
298.15 K, x1 = 0.0535	820.01	1303.1	4.359
298.15 K, x1 = 0.1046	824.093	1302.6	4.133
298.15 K, x1 = 0.1546	828.161	1302.2	4.004
298.15 K, x1 = 0.2054	832.312	1301.8	3.821
298.15 K, x1 = 0.253	836.221	1301.6	3.691
298.15 K, x1 = 0.2999	840.066	1301.4	3.616
298.15 K, x1 = 0.4044	848.606	1301.3	3.464
298.15 K, x1 = 0.5039	856.686	1301.5	3.305
298.15 K, x1 = 0.5932	863.892	1301.8	3.139
298.15 K, x1 = 0.7003	872.492	1302.6	3.046
298.15 K, x1 = 0.8019	880.623	1303.6	2.996
298.15 K, x1 = 0.8545	884.811	1304.3	2.908
298.15 K, x1 = 0.8987	888.334	1305	2.897
298.15 K, x1 = 0.9522	892.569	1305.7	2.871
303.15 K, x1 = 0.0535	816.368	1286.3	3.706
303.15 K, x1 = 0.1046	820.503	1285.8	3.56
303.15 K, x1 = 0.1546	824.557	1285.5	3.421
303.15 K, x1 = 0.2054	828.676	1285.2	3.3
303.15 K, x1 = 0.253	832.536	1284.9	3.19
303.15 K, x1 = 0.2999	836.324	1284.8	3.1
303.15 K, x1 = 0.4044	844.739	1284.7	2.916
303.15 K, x1 = 0.5039	852.713	1284.8	2.781
303.15 K, x1 = 0.5932	859.852	1285.2	2.694
303.15 K, x1 = 0.7003	868.399	1285.9	2.631
303.15 K, x1 = 0.8019	876.485	1286.8	2.583
303.15 K, x1 = 0.8545	880.662	1287.4	2.573
303.15 K, x1 = 0.8987	884.162	1288	2.595
303.15 K, x1 = 0.9522	888.376	1288.7	2.613
308.15 K, x1 = 0.0535	812.694	1269.6	3.243
308.15 K, x1 = 0.1046	816.794	1269.2	3.12
308.15 K, x1 = 0.1546	820.816	1268.8	3.006
308.15 K, x1 = 0.2054	824.902	1268.6	2.896
308.15 K, x1 = 0.253	828.737	1268.3	2.807
308.15 K, x1 = 0.2999	832.499	1268.2	2.736
308.15 K, x1 = 0.4044	840.855	1268.1	2.597
308.15 K, x1 = 0.5039	848.772	1268.2	2.499
308.15 K, x1 = 0.5932	855.859	1268.6	2.43
308.15 K, x1 = 0.7003	864.345	1269.2	2.367
308.15 K, x1 = 0.8019	872.393	1270.1	2.311
308.15 K, x1 = 0.8545	876.541	1270.6	2.284
308.15 K, x1 = 0.8987	880.024	1271.1	2.275
308.15 K, x1 = 0.9522	884.199	1271.8	2.242
313.15 K, x1 = 0.0535	809.018	1253	–
313.15 K, x1 = 0.1046	813.092	1252.7	–
313.15 K, x1 = 0.1546	817.077	1252.4	–
313.15 K, x1 = 0.2054	821.127	1252.2	–
313.15 K, x1 = 0.253	824.921	1252	–
313.15 K, x1 = 0.2999	828.653	1251.9	–
313.15 K, x1 = 0.4044	836.942	1251.8	–
313.15 K, x1 = 0.5039	844.805	1251.9	–
313.15 K, x1 = 0.5932	851.852	1252.2	–
313.15 K, x1 = 0.7003	860.279	1252.7	–
313.15 K, x1 = 0.8019	868.245	1253.4	–
313.15 K, x1 = 0.8545	872.354	1253.9	–
313.15 K, x1 = 0.8987	875.803	1254.3	–
313.15 K, x1 = 0.9522	879.956	1254.9	–
